#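 Step 1: Grow cells in 96-well plates. Step 2: Expose to compound for 48 hours at 5 concentrations. Step 3: Interpolate endpoints linearly; if unreached, use highest concentration. GI50 is the concentration that inhibits growth by half.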 Calls of active or inactive are those of the source. Rule as the data show it: active = GI50 up to about 1.1 µM and inactive = higher.
# How the values were obtained:
# Experiment in all cases: growth of human tumour cells (NCI), 48 h
# MOLT-4 = test system: MOLT-4
# K562 = test system: K562
# NCI-H226 = test system: NCI-H226
# HCT-116 = test system: HCT-116
# UO-31 = test system: UO-31
# CCRF-CEM = test system: CCRF-CEM
# SK-MEL-28 = test system: SK-MEL-28
# M19-MEL = test system: M19-MEL
# OVCAR-8 = test system: OVCAR-8
# OVCAR-4 = test system: OVCAR-4
# SW-620 = test system: SW-620
# 786-0 = test system: 786-0
# OVCAR-3 = test system: OVCAR-3
# SK-OV-3 = test system: SK-OV-3
# A549 = test system: A549
# SF-539 = test system: SF-539
# RXF 393 = test system: RXF 393
# UACC-257 = test system: UACC-257
# RPMI-8226 = test system: RPMI-8226
SMILES,GI50 (MOLT-4),GI50 (K562),GI50 (NCI-H226),GI50 (HCT-116),GI50 (UO-31),GI50 (CCRF-CEM),GI50 (SK-MEL-28),GI50 (M19-MEL),GI50 (OVCAR-8),GI50 (OVCAR-4),GI50 (SW-620),GI50 (786-0),GI50 (OVCAR-3),GI50 (SK-OV-3),GI50 (A549),GI50 (SF-539),GI50 (RXF 393),GI50 (UACC-257),GI50 (RPMI-8226)
CN(C)CCn1cnc2ncccc2c1=O,> 100 µM (inactive),> 100 µM (inactive),> 100 µM (inactive),> 100 µM (inactive),> 100 µM (inactive),> 100 µM (inactive),> 100 µM (inactive),> 100 µM (inactive),> 100 µM (inactive),> 100 µM (inactive),> 100 µM (inactive),> 100 µM (inactive),> 100 µM (inactive),> 100 µM (inactive),> 100 µM (inactive),> 100 µM (inactive),> 100 µM (inactive),,
CC(=O)Oc1ccc2c(c1)C(=O)c1nc(C)c(C)nc1C2=O,41.8 µM (inactive),47 µM (inactive),38.7 µM (inactive),43.7 µM (inactive),> 74.6 µM (inactive),35.4 µM (inactive),46.1 µM (inactive),4.61 µM (inactive),45.1 µM (inactive),46.3 µM (inactive),46.5 µM (inactive),37.2 µM (inactive),21.4 µM (inactive),71.8 µM (inactive),43.7 µM (inactive),25.8 µM (inactive),31.8 µM (inactive),36.6 µM (inactive),39.8 µM (inactive)
Nc1ncn(C2C=C(CO)C(O)C2O)c(=O)n1 (stereo not given),59.4 µM (inactive),41.6 µM (inactive),> 100 µM (inactive),40 µM (inactive),92.7 µM (inactive),,> 100 µM (inactive),> 100 µM (inactive),45.5 µM (inactive),85.9 µM (inactive),57.5 µM (inactive),63.1 µM (inactive),> 100 µM (inactive),> 100 µM (inactive),52.4 µM (inactive),63.5 µM (inactive),> 100 µM (inactive),> 100 µM (inactive),37 µM (inactive)
CC(C)(C)c1ccc2c(c1)S(=O)(=O)Nc1ccc(Cl)cc1NS(=O)(=O)c1cc(C(C)(C)C)ccc1OCCOCCOCCO2,> 100 µM (inactive),> 100 µM (inactive),57.9 µM (inactive),35.9 µM (inactive),53.5 µM (inactive),> 100 µM (inactive),> 100 µM (inactive),62.4 µM (inactive),35 µM (inactive),5.69 µM (inactive),98.9 µM (inactive),87.3 µM (inactive),50.6 µM (inactive),33 µM (inactive),25.1 µM (inactive),23.5 µM (inactive),19.8 µM (inactive),55.7 µM (inactive),
CC(c1ccc2c(c1)CCC1C2CC2OC23CC=CC(=O)[C@]13C)C1C[C@]2(C)O[C@]2(C)[C@H](O)O1 (stereo not given in full),13.4 µM (inactive),3.14 µM (inactive),12.1 µM (inactive),0.256 µM (active),10.5 µM (inactive),15.4 µM (inactive),50.8 µM (inactive),34.4 µM (inactive),37 µM (inactive),,25.3 µM (inactive),> 100 µM (inactive),19.2 µM (inactive),> 100 µM (inactive),16.1 µM (inactive),82.4 µM (inactive),11.7 µM (inactive),11.1 µM (inactive),2 µM (inactive)
CC(C)=CC(=O)Cc1nc2ccc([N+](=O)[O-])cc2[nH]c1=O,25.2 µM (inactive),83.8 µM (inactive),> 100 µM (inactive),> 100 µM (inactive),63.1 µM (inactive),,> 100 µM (inactive),> 100 µM (inactive),> 100 µM (inactive),> 100 µM (inactive),> 100 µM (inactive),> 100 µM (inactive),> 100 µM (inactive),> 100 µM (inactive),> 100 µM (inactive),> 100 µM (inactive),> 100 µM (inactive),> 100 µM (inactive),17.3 µM (inactive)
CC(=O)O[C@H]1C(=O)[C@@]2(C)C(C(OC(=O)c3ccccc3)[C@]3(O)CC(OC(=O)C(O)C(NC(=O)c4ccccc4)c4ccc(C)cc4)C(C)=C1C3(C)C)[C@]1(OC(C)=O)CO[C@@H]1C[C@@H]2O (stereo not given in full),0.0163 µM (active),0.0308 µM (active),,0.00938 µM (active),2 µM (inactive),0.0147 µM (active),,0.0195 µM (active),0.00979 µM (active),3.75 µM (inactive),0.00555 µM (active),0.073 µM (active),0.00673 µM (active),0.0117 µM (active),0.0179 µM (active),0.0106 µM (active),0.0074 µM (active),0.0656 µM (active),0.0117 µM (active)
S=C1CNC(=S)CN1,> 100 µM (inactive),> 100 µM (inactive),> 100 µM (inactive),> 100 µM (inactive),> 100 µM (inactive),> 100 µM (inactive),> 100 µM (inactive),> 100 µM (inactive),> 100 µM (inactive),> 100 µM (inactive),> 100 µM (inactive),> 100 µM (inactive),> 100 µM (inactive),> 100 µM (inactive),> 100 µM (inactive),> 100 µM (inactive),> 100 µM (inactive),> 100 µM (inactive),> 100 µM (inactive)
O=C(CC1(O)C(=O)Nc2ccccc21)c1ccc(F)cc1 (stereo not given),> 100 µM (inactive),> 100 µM (inactive),> 100 µM (inactive),> 100 µM (inactive),> 100 µM (inactive),,> 100 µM (inactive),> 100 µM (inactive),> 100 µM (inactive),> 100 µM (inactive),> 100 µM (inactive),> 100 µM (inactive),> 100 µM (inactive),> 100 µM (inactive),> 100 µM (inactive),> 100 µM (inactive),> 100 µM (inactive),> 100 µM (inactive),> 100 µM (inactive)
COc1ccc(SS(=O)(=O)c2ccc(OC)cc2)cc1,13.2 µM (inactive),21.7 µM (inactive),23.6 µM (inactive),16.1 µM (inactive),13.9 µM (inactive),2.64 µM (inactive),19.6 µM (inactive),19.5 µM (inactive),16.6 µM (inactive),,3.69 µM (inactive),17.2 µM (inactive),18.2 µM (inactive),34.2 µM (inactive),24.4 µM (inactive),18.8 µM (inactive),18.1 µM (inactive),22.9 µM (inactive),27.5 µM (inactive)
CC(=O)Nc1ccc(/C=C/C(=O)c2sc(-c3nc(C)c(C(=O)/C=C/c4ccc(NC(C)=O)cc4)s3)nc2C)cc1,> 100 µM (inactive),> 100 µM (inactive),> 100 µM (inactive),> 100 µM (inactive),97.5 µM (inactive),> 100 µM (inactive),> 100 µM (inactive),> 100 µM (inactive),> 100 µM (inactive),> 100 µM (inactive),> 100 µM (inactive),> 100 µM (inactive),> 100 µM (inactive),> 100 µM (inactive),> 100 µM (inactive),> 100 µM (inactive),> 100 µM (inactive),> 100 µM (inactive),
CC(C)(C)C1=CC(CCC(=O)Nc2ccccc2[N+](=O)[O-])=NC(S)N1 (stereo not given),> 100 µM (inactive),> 100 µM (inactive),> 100 µM (inactive),> 100 µM (inactive),> 100 µM (inactive),> 100 µM (inactive),> 100 µM (inactive),> 100 µM (inactive),> 100 µM (inactive),> 100 µM (inactive),> 100 µM (inactive),> 100 µM (inactive),> 100 µM (inactive),> 100 µM (inactive),> 100 µM (inactive),> 100 µM (inactive),> 100 µM (inactive),> 100 µM (inactive),
CNC(=O)C1CCc2nnc(-c3ccccc3)n21 (stereo not given),> 100 µM (inactive),> 100 µM (inactive),> 100 µM (inactive),> 100 µM (inactive),> 100 µM (inactive),> 100 µM (inactive),> 100 µM (inactive),> 100 µM (inactive),,> 100 µM (inactive),> 100 µM (inactive),> 100 µM (inactive),> 100 µM (inactive),> 100 µM (inactive),> 100 µM (inactive),> 100 µM (inactive),> 100 µM (inactive),> 100 µM (inactive),> 100 µM (inactive)
CCc1c(OC(C)=O)c2c(NC3OC(COC(C)=O)C(OC(C)=O)C(OC(C)=O)C3OC(C)=O)nc(SC)nc2oc1=O (stereo not given),> 100 µM (inactive),> 100 µM (inactive),> 100 µM (inactive),> 100 µM (inactive),> 100 µM (inactive),> 100 µM (inactive),,> 100 µM (inactive),> 100 µM (inactive),> 100 µM (inactive),> 100 µM (inactive),> 100 µM (inactive),> 100 µM (inactive),> 100 µM (inactive),> 100 µM (inactive),> 100 µM (inactive),> 100 µM (inactive),> 100 µM (inactive),> 100 µM (inactive)
O=C(NC1CCCC1=O)c1ccccc1 (stereo not given),> 100 µM (inactive),> 100 µM (inactive),98.9 µM (inactive),> 100 µM (inactive),> 100 µM (inactive),> 100 µM (inactive),> 100 µM (inactive),> 100 µM (inactive),> 100 µM (inactive),> 100 µM (inactive),> 100 µM (inactive),> 100 µM (inactive),> 100 µM (inactive),> 100 µM (inactive),> 100 µM (inactive),> 100 µM (inactive),> 100 µM (inactive),> 100 µM (inactive),
